What was measured:
[1] = tested on: hESC-derived multipotent uncommitted neural precursors; test: Oligodendroglial differentiation of hESCs with retinoic acid and purmorphamine, propagation in low purmorphamine; type: cell-based, human
Experimental: To derive an expandable population of neural precursors enriched for oligodendroglial progenitors (committed), initial neuralization of hESCs was induced as above with or without noggin supplementation. After 2 weeks of culturing in NPM supplemented with mitogens +/−noggin the clusters were treated with RA (1-10 μM; preferably 1 μM) and the hedgehog agonist, Purmurphamine (Merck) (0.5-2 μM; preferably 0.5 μM) to induce ventral-caudal specification of the neuralized cells. Following 7-21 days, preferably 21 days of treatment, the cultures were further propagated for three to 20 more weeks as floating spheres in modified Sato medium supplemented with low concentrations of purmorphamine (0.2-0.5 μM; preferably 0.5 μM), bFGF (20 ng/ml), EGF (20 ng/ml), (NT3; 5 ng/ml) and ascorbic acid (200 nM). For final differentiation, the clusters were plated on poly-D-Lysine (10 μg/ml) and fibronectin (5 μg/ml) coated coverslips in modified Sato medium supplemented with NT3 ([…]), ascorbic acid (200 nM) T3 (40 ng/ml) IGF1 (10 ng/ml;) with or without Rock inhibitor (10 μM; Sigma) for 2-21 days.
To develop expandable cultures enriched for oligodendroglial committed progenitors, hESCs clusters were induced to differentiate as free floating clusters into multipotent uncommitted neural precursors as above with or without noggin. After two weeks of initial neural induction the multipotent uncommitted neural precursors were further cultured for 1-3 weeks, preferably 3 weeks, as floating spheres in modified Sato medium supplemented with mitogens, retinoic acid (RA) and the hedgehog (HH) agonist purmorphamine. During this culture period the early multipotent neural precursors gradually become enriched with Olig2+ oligodendroglial precursors (30-50% of total cells).
For further expansion of the oligodendroglial precursors, the floating spheres were propagated in Sato medium supplemented with mitogens, and low concentrations (0.5 μM) of purmorphamine. After 3-20 weeks of propagation as free floating clusters and plating on fibronectin for 24-48 hours, expression of the OPC markers Olig2 (FIG. 8A), PDGFRα (FIG. 8B) and NG2 (FIG. 8C) were detected in 30%, 20% and 20% of the differentiating cells, respectively. Following further 7-21 days of differentiation in the presence of NT3, AA, T3 and IGF1 +/− Rock inhibitor, markers of mature oligodendrocytes such as O4 (FIG. 8D), GalC (FIG. 8E) and MBP (FIG. 8F) were detected in 20%, 15% and 3% of the plated cells, respectively.

[2] = tested on: hESCs; test: In vitro oligodendroglial differentiation of hESCs following retinoic acid treatment; type: cell-based, human; conditions: RA treatment
Experimental: Derivation of enriched population of committed oligodendrocyte progenitor cells (OPCs): Initial neural differentiation of hESC was induced as described above for the derivation of enriched population of uncommitted neural precursors. Following two weeks of culturing of hESC clusters in NPM supplemented with noggin (700 ng/ml), and the oligodendroglial mitogens bFGF (20 ng/ml) and EGF (20 ng/ml), the cultures were treated with retinoic acid (RA) (sigma) (10 μM) to induce caudal specification of the neuralized cells. Following 7 days of RA treatment, cultures were propagated as floating spheres in the oligodendroglial specific, modified Sato medium supplemented with the oligodendroglial mitogens bFGF (20 ng/ml), EGF (20 ng/ml) and PDGF-AA (50 ng/ml), and the oligodendroglial survival and maturation factors neurotrophine 3 (NT3) (5 ng/ml) and triiodothyronine (T3) (40 ng/ml).
In vitro oligodendroglial differentiation of hESCs was examined. The experimental protocol included initial induction of human ESCs to differentiate as free floating clusters, under defined culture conditions, in the presence of noggin into early multipotent neural precursors according to the published protocols as described above. After two weeks, they were treated with retinoic acid (RA) and propagated as floating spheres in modified Sato medium and mitogens At sequential week intervals, differentiation was induced by plating on fibronectin and withdrawal of the mitogens, and the expression of oligodendroglial markers were analyzed by immunostaining. After three weeks of propagation as free floating clusters, followed by plating and differentiation for 48 hours, the differentiating cells expressed the oligodendroglial markers NG2 (12%) (FIGS. 7A,[…], 7D, 7F) GD3 (20%) (FIGS. 7B, 7C) and PDGFRα (15%) (FIGS. 7E, 7F). Although at this stage of three weeks propagation, when enrichment for OPCs was obtained, markers of mature oligodendrocytes such as O4 and GalC were not detected, even after 7-10 days of differentiation. Only in cultures that were propagated for more than 5 weeks and induced to differentiate for 7 days, O4 and GalC were expressed by 3% and 1% of differentiating cells, respectively (FIGS. 7G, 7I (O4) and FIGS. 7H, 7I (GalC). Nuclei in FIGS. 7C, 7F, 7G-7I were counter stained with DAPI.

[3] = after RA + purmorphamine, 3-20 weeks propagation with 0.5 μM purmorphamine, plated on fibronectin 24-48 hours
[4] = propagation with 0.5 μM purmorphamine, further 7-21 days differentiation with NT3, AA, T3, IGF1 +/- Rock inhibitor
[5] = propagated more than 5 weeks, differentiated 7 days
[6] = three weeks propagation as floating clusters, differentiation 48 hours

SMILES: c1ccc2c(Oc3nc(Nc4ccc(N5CCOCC5)cc4)c4ncn(C5CCCCC5)c4n3)cccc2c1 [purmorphamine]
- Olig2+ oligodendroglial precursors (of total cells) ([1]; 1-3 weeks as floating spheres in modified Sato medium with mitogens, RA and purmorphamine): 30-50%
- differentiating cells expressing NG2 [1, 3]: 20%
- differentiating cells expressing Olig2 [1, 3]: 30%
- differentiating cells expressing PDGFRα [1, 3]: 20%
- plated cells expressing GalC [1, 4]: 15%
- plated cells expressing MBP [1, 4]: 3%
- plated cells expressing O4 [1, 4]: 20%

SMILES: CC1=C(/C=C/C(C)=C/C=C/C(C)=C/C(=O)O)C(C)(C)CCC1 [retinoic acid]
- differentiating cells expressing GalC [2, 5]: 1%
- differentiating cells expressing O4 [2, 5]: 3%
- differentiating cells expressing GD3 [2, 6]: 20%
- differentiating cells expressing NG2 [2, 6]: 12%
- differentiating cells expressing PDGFRα [2, 6]: 15%

— patent US9862925B2, “Human stem cell-derived neural precursors for treatment of autoimmune diseases of the central nervous system” (Hadasit Medical Research Services & Development Limited, priority 2007, dated 2018)
